Patent publication US9029414B2, “Triterpenoid compounds and methods of use thereof” (Biotechnology Research Corporation, priority 2008, dated 2015)

Tests used:
human MC1 receptor = human MC1 receptor (Homo sapiens, UniProt Q01726); assay: Radioligand competition binding assay, MC1
Protocol: (§1) DA001 was evaluated against 109 receptor binding assays and 17 enzyme assays, comprising of selective, central and peripheral therapeutically-relevant targets. Radioligand competition assays were conducted whereby DA001 was tested at one concentration (10 μM) in duplicate. […] It could compete with the radioligand [^125I-NDP-alpha-melanocyte-stimulating hormone (α-MSH)] binding for MC1 and MC4 but not MC3 and MC5 nor the related family, the melanin concentrating hormone receptors (MCH1 and MCH2).
(§2) To determine the IC50 for DA001 to inhibit α-MSH binding on MC1 and MC4 receptor, the compound was further characterized by a dose-dependent study. DA001 was evaluated with 8 concentrations on MC1 and MC4 receptor binding assays.
(§3) The specific ligand binding to the receptors is defined as the difference between the total binding and the nonspecific binding determined in the presence of an excess of unlabelled ligand. The results are expressed as a percent of control specific binding [(measured specific binding/control specific binding)×100] and as a percent inhibition of control specific binding {100−[(measured specific binding/control specific binding)×100]} obtained in the presence of DA001. The IC50 values (concentration causing a half-maximal inhibition of control specific binding) and Hill coefficients (nH) were determined by non-linear regression analysis of the competition curves generated with mean replicate values using Hill equation curve fitting (Y=D+[(A−D)/(1+(C/C50)nH)], where Y=specific binding, D=minimum specific binding, A=maximum specific binding, C=compound concentration, C50=IC50, and nH=slope factor). This analysis was performed using a software developed at Cerep (Hill software) and validated by comparison with data generated by the commercial software SigmaPlot® 4.0 for Windows® (© 1997 by SPSS Inc.).

human MC4 receptor [1] = biological target: T1, human MC4 receptor (Homo sapiens, UniProt P32245); assay: Radioligand competition binding assay, MC4
T1 sequence (P32245 whole entry): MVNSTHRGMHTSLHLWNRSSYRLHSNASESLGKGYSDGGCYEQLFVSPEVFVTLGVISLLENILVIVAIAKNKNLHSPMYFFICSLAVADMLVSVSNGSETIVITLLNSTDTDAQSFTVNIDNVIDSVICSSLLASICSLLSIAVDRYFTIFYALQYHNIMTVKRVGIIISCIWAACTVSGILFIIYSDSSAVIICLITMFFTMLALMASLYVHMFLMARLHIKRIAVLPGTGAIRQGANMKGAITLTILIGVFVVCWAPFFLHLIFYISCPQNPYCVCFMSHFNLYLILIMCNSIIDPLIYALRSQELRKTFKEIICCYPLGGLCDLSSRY
Protocol: as §1, §2, §3

human MC4 receptor [2] = biological target: T1, human MC4 receptor; assay: Cellular receptor functional assay (cAMP), MC4; type: cell-based; conditions: cells over-expressing MC4
Protocol: FIG. 1. […] DA001 alone is unable to induce cAMP increase (blue square dots).
DA001 inhibits ligand binding to MC1 and MC4 receptors. To determine whether the inhibitory effect is due to agonist or antagonist activity, DA001 was evaluated at 6 or 8 concentrations in cellular assays assessing receptor function. Upon ligand binding, the MC1 or MC4 receptor is activated which leads to an increase in intracellular cyclic AMP. […] DA001 alone is unable to induce cAMP increase (blue square dots). […] DA001 was further evaluated with MC2 receptor functional assay. Upon ligand binding, the MC2 receptor is activated which leads to an increase in intracellular cyclic AMP.

[3] = tested on: MOG-induced IL-17 in primary splenocytes; assay: IL-17 Quantikine ELISA in primary splenocytes of EAE mice; type: cell-based; conditions: exogenous compound 30 μM; for decrease of IL-17 in response to exogenous compound: splenocytes of compound-treated EAE mice (100 mg/kg); for reduction in the amount of IL-17: splenocytes of vehicle-treated EAE mice, MOG 25 μg/mL, 48 hrs
Protocol: On day 21, EAE mice were sacrificed by cervical dislocation and spleens were removed aseptically. The removed spleens were then cut with sterilized scissors and strained through […] mesh (BD Bioscience) with a plunger of 5 mL syringe (BD Bioscience) in 9 mL of RPMI 1640 (Invitrogen) with 100 U/mL penicillin and 100 μg/mL streptomycin (Sigma). The cell mixture was then added to 9 mL of Lympholyte (Cedarlane Laboratories) for gradient separation of splenocytes from red bloods cells by centrifugation at 1500 g for 20 min. After the centrifugation, the lympholyte layer containing splenocytes were carefully removed and washed with 10 mL of RPMI 1640 at 800 g for 10 min for three times. The isolated splenocytes were seeded onto different plate format and cultured with RPMI 1640 medium (Invitrogen) supplement with 10% heat inactivated fetal bovine serum (Invitrogen) and 100 U/mL penicillin and 100 μg/mL streptomycin at 37° C. CO2 incubator.
Splenocytes from EAE mice were cultured at the density of 1×10^6 cells in 12-well plates (Falcon) in the absence or presence of the MOG peptide (25 μg/mL) (Hooke Laboratories), DA001 and DA021 (30 μM) with RPMI 1640 medium (Invitrogen) supplement with 10% heat inactivated fetal bovine serum (Invitrogen) and 100 U/mL penicillin and 100 μg/mL streptomycin (Sigma) for 48 h. After 48 h, the supernatants were collected by pelleting the cells at 300 g for 10 min at 4° C. 50 μL of the each sample was added to the microtiter plate provided by the manufacturer of the Quantikine ELISA assay kit (R and D systems). Additional 50 μL of assay diluents buffer was added and incubated at room temperature for 2 h. […] Subsequently, 100 μL of stop solution was added to each well and the plate was read in 450 nm wavelength on a microplate reader (Dynex Revelation 2.2).
(§4) Cells were cultured in RPMI 1640 medium supplement with 10% heat inactivated fetal bovine serum and penicillin/streptomycin, in the absence or presence of MOG (25 μg/mL, Ex) with or without DA001 or DA021 (30 μM, Ex). […] The amount of IL-17 was calculated based on the standard curve established during the assay. […]
as §4, with “DA001” for “DA001 or DA021”
as §4, with “without” for “without DA001 or”

Sequence of human MC1 receptor (Q01726 whole entry): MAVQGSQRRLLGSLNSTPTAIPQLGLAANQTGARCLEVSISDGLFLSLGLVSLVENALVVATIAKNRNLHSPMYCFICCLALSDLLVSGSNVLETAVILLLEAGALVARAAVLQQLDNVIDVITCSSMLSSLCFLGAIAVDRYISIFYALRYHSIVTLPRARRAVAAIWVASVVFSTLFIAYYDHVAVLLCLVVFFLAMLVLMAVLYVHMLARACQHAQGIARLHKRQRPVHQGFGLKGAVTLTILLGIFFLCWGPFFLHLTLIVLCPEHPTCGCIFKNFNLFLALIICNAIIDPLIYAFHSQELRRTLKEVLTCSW

Row | SMILES | Ki (human MC1 receptor) [µM] | IC50 (human MC1 receptor; 8 concentrations) [µM] | nH (human MC1 receptor; Hill coefficient) | Ki (human MC4 receptor [1]) [µM] | IC50 (human MC4 receptor [1]; 8 concentrations) [µM] | nH (human MC4 receptor [1]; Hill coefficient) | agonist effect (cAMP increase by compound alone) (human MC4 receptor [2]; compound alone) | IC50 (human MC4 receptor [2]; inhibition of cAMP increase by NDP-α-MSH, read-out: IC50, antagonist effect) [µM] | decrease of IL-17 in response to exogenous compound [3] [%] | reduction in the amount of IL-17 [3] [%]
1 | C=C(C)[C@@H]1CC[C@]2(C(=O)O)CC[C@]3(C)C(CC[C@@H]4[C@@]5(C)CC[C@H](O[C@@H]6OC[C@H](O)[C@H](O)[C@H]6O[C@@H]6O[C@@H](C)[C@H](O)[C@@H](O)[C@H]6O)[C@@](C)(CO)[C@@H]5CC[C@]43C)[C@@H]12 (stereo partly drawn) [DA001, 3-O-[α-L-rhamnopyranosyl-(1→2)-α-L-arabinopyranosyl]-3,23-dihydroxy-20(29)-lupen-28-oic acid] | 5.2 | 10 | 0.9 | 6.3 | 6.8 | 1.3 | did not induce an increase in cAMP | 17 | 51 | 65
2 | C=C(C)[C@@H]1CC[C@]2(/C=N/O)CC[C@]3(C)C(CCC4[C@@]5(C)CCC(=O)[C@@](C)(CO)[C@@H]5CC[C@]43C)C12 (stereo partly drawn) [DA021] |  |  |  |  |  |  |  |  | 89 | 68
